Source: US20260226086A1, “COMPOUNDS AND COMPOSITIONS AS STAT3 DEGRADERS AND USES THEREOF” (REGENTS OF THE UNIVERSITY OF MICHIGAN, priority 2023, published 2026)

How the values were obtained:
Type in all cases: cell-based
STAT3 = target: T1, STAT3 (Homo sapiens, UniProt P40763); assay: HiBiT assay, STAT3 degradation in STAT3-HiBiT KI HeLa cells; conditions: 24 h; for DC50: read-out: STAT3 Degradation (HeLa 24 h HiBit) DC50
T1 construct: This cell line is a clone created by using CRISPR-Cas9 to fuse HiBiT to the 3′ end of STAT3 in HeLa cells; host or cells: STAT3-HiBiT KI HeLa cell line (CRISPR-Cas9 knock-in clone)
Summary of the method: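 HeLa cells with CRISPR knock-in of HiBiT at the STAT3 C-terminus, 20000 cells/well, treated with serial compound dilutions for 24 h at 37 °C, 5% CO2. Remaining STAT3 read by Nano-Glo HiBiT lytic luminescence versus untreated cells; IC50 from four-parameter nonlinear fit of triplicate means.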

SU-DHL-1 cells = assay: CellTiter-Glo 2.0 cell viability assay, SU-DHL-1; conditions: Homo sapiens, 96 h, 4 days
Summary of the method: (§1)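 1000 cells per well exposed to serially diluted compounds for 4 days at 37 °C, 5% CO2. Viability measured by CellTiter-Glo 2.0 luminescence versus untreated cells; IC50 from four-parameter nonlinear fit of triplicate means.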

SUP-M2 cells = assay: CellTiter-Glo 2.0 cell viability assay, SUP-M2; conditions: SUP-M2, 96 h, 4 days
Summary of the method: as §1

T1 sequence (P40763 whole entry): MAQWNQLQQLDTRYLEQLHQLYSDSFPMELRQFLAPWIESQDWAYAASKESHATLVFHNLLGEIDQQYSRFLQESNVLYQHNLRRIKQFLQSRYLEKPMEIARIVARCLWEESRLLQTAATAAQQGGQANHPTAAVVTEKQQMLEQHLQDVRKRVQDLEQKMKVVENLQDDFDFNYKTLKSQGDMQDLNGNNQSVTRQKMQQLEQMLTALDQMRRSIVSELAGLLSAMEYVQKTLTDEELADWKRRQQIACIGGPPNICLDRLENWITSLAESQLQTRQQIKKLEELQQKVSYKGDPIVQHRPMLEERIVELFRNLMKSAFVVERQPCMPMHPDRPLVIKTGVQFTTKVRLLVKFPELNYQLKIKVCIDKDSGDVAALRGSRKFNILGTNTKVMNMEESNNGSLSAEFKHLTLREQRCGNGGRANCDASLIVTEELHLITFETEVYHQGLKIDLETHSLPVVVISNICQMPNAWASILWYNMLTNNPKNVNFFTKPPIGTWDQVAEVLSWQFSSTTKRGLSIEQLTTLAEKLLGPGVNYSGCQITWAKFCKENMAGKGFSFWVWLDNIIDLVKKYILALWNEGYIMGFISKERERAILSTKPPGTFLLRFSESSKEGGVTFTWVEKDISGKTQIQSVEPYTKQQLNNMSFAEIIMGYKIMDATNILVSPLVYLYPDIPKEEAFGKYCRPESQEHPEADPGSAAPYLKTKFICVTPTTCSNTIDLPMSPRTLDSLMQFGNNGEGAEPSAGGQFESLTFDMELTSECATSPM

Row | Compound | Dmax at 1 µM (STAT3) [%] | DC50 (STAT3) [nM] | IC50 (SU-DHL-1 cells) [nM] | IC50 (SUP-M2 cells) [nM]
1 | CC(=O)N1CC[C@H]2CC[C@@H](C(=O)N[C@@H](CCC(N)=O)COc3cccc(CCCc4cn([C@H](C(=O)N5C[C@H](O)C[C@H]5C(=O)N[C@@H](C)c5ccc(-c6scnc6C)cc5)C5CCOCC5)nn4)c3Cl)N2C(=O)[C@@H](NC(=O)c2cc3cc(C(=O)P(=O)(O)O)ccc3[nH]2)C1 [Compound 23, (2-(((5S,8S,10aR)-3-acetyl-8-(((S)-5-amino-1-(2-chloro-3-(3-(1-((S)-2-((2S,4R)-4-hydroxy-2-(((S)-1-(4-(4-methylthiazol-5-yl)phenyl)ethyl)carbamoyl)pyrrolidin-1-yl)-2-oxo-1-(tetrahydro-2H-pyran-4-yl)ethyl)-1H-1,2,3-triazol-4-yl)propyl)phenoxy)-5-oxopentan-2-yl)carbamoyl)-6-oxodecahydropyrrolo[1,2-a][1,5]diazocin-5-yl)carbamoyl)-1H-indole-5-carbonyl)phosphonic acid] | > 80 | < 10 | < 10 | < 10
2 | Cc1ncsc1-c1ccc([C@H](C)NC(=O)[C@@H]2C[C@@H](O)CN2C(=O)[C@@H](n2cc(CCCCC(=O)N3CC[C@H]4CC[C@@H](C(=O)N[C@@H](CCC(N)=O)COc5cccc(Cl)c5)N4C(=O)[C@@H](NC(=O)c4cc5cc(C(=O)P(=O)(O)O)ccc5[nH]4)C3)nn2)C(C)(C)C)cc1 [Compound 12, (2-(((5S,8S,10aR)-8-(((S)-5-amino-1-(3-chlorophenoxy)-5-oxopentan-2-yl)carbamoyl)-3-(5-(1-((S)-1-((2S,4R)-4-hydroxy-2-(((S)-1-(4-(4-methylthiazol-5-yl)phenyl)ethyl)carbamoyl)pyrrolidin-1-yl)-3,3-dimethyl-1-oxobutan-2-yl)-1H-1,2,3-triazol-4-yl)pentanoyl)-6-oxodecahydropyrrolo[1,2-a][1,5]diazocin-5-yl)carbamoyl)-1H-indole-5-carbonyl)phosphonic acid] | > 80 | 10 to 100 | 100 to 1000 | 10 to 100
3 | Cc1ncsc1-c1ccc([C@H](C)NC(=O)[C@@H]2C[C@@H](O)CN2C(=O)[C@@H](NC(=O)CCCCC(=O)N2CC[C@H]3CC[C@@H](C(=O)N[C@@H](CCC(N)=O)C(=O)NC(c4ccccc4)c4ccccc4)N3C(=O)[C@@H](NC(=O)c3cc4cc(C(=O)P(=O)(O)O)ccc4[nH]3)C2)C(C)(C)C)cc1 [Compound 49, (2-(((5S,8S,10aR)-8-(((S)-5-amino-1-(benzhydrylamino)-1,5-dioxopentan-2-yl)carbamoyl)-3-(6-(((S)-1-((2S,4R)-4-hydroxy-2-(((S)-1-(4-(4-methylthiazol-5-yl)phenyl)ethyl)carbamoyl)pyrrolidin-1-yl)-3,3-dimethyl-1-oxobutan-2-yl)amino)-6-oxohexanoyl)-6-oxodecahydropyrrolo[1,2-a][1,5]diazocin-5-yl)carbamoyl)-1H-indole-5-carbonyl)phosphonic acid] |  | 10 to 100 | 10 to 100 | 10 to 100
4 | Cc1ncsc1-c1ccc([C@H](C)NC(=O)[C@@H]2C[C@@H](O)CN2C(=O)[C@@H](n2cc(CC(=O)N3CC[C@H]4CC[C@@H](C(=O)N[C@@H](CCC(N)=O)C(=O)NC(c5ccccc5)c5ccccc5)N4C(=O)[C@@H](NC(=O)c4cc5cc(C(=O)P(=O)(O)O)ccc5[nH]4)C3)nn2)C(C)(C)C)cc1 [Compound 54, (2-(((5S,8S,10aR)-8-(((S)-5-amino-1-(benzhydrylamino)-1,5-dioxopentan-2-yl)carbamoyl)-3-(2-(1-((S)-1-((2S,4R)-4-hydroxy-2-(((S)-1-(4-(4-methylthiazol-5-yl)phenyl)ethyl)carbamoyl)pyrrolidin-1-yl)-3,3-dimethyl-1-oxobutan-2-yl)-1H-1,2,3-triazol-4-yl)acetyl)-6-oxodecahydropyrrolo[1,2-a][1,5]diazocin-5-yl)carbamoyl)-1H-indole-5-carbonyl)phosphonic acid] |  | > 1000 | > 1000 | > 1000
5 | Cc1ncsc1-c1ccc([C@H](C)NC(=O)[C@@H]2C[C@@H](O)CN2C(=O)[C@@H](n2cc(CCc3cccc(OC[C@H](CCC(N)=O)NC(=O)[C@@H]4CC[C@@H]5CCN(C(=O)C(C)C)C[C@H](NC(=O)c6cc7cc(C(=O)P(=O)(O)O)ccc7[nH]6)C(=O)N54)c3Cl)nn2)C(C)(C)C)cc1 [Compound 3, (2-(((5S,8S,10aR)-8-(((S)-5-amino-1-(2-chloro-3-(2-(1-((S)-1-((2S,4R)-4-hydroxy-2-(((S)-1-(4-(4-methylthiazol-5-yl)phenyl)ethyl)carbamoyl)pyrrolidin-1-yl)-3,3-dimethyl-1-oxobutan-2-yl)-1H-1,2,3-triazol-4-yl)ethyl)phenoxy)-5-oxopentan-2-yl)carbamoyl)-3-isobutyryl-6-oxodecahydropyrrolo[1,2-a][1,5]diazocin-5-yl)carbamoyl)-1H-indole-5-carbonyl)phosphonic acid] | > 80 | 10 to 100 | 10 to 100 | 10 to 100
6 | CC(=O)N1CC[C@H]2CC[C@@H](C(=O)N[C@@H](CCC(N)=O)COc3cccc(CCCCNC(=O)C[C@H](NC(=O)[C@@H]4C[C@@H](O)CN4C(=O)[C@H](C4CCCCC4)n4cc(C5CC5)nn4)c4ccc(-c5scnc5C)cc4)c3Cl)N2C(=O)[C@@H](NC(=O)c2cc3cc(C(=O)P(=O)(O)O)ccc3[nH]2)C1 [Compound 36, (2-(((5S,8S,10aR)-3-acetyl-8-(((S)-5-amino-1-(2-chloro-3-(4-((S)-3-((2S,4R)-1-((S)-2-cyclohexyl-2-(4-cyclopropyl-1H-1,2,3-triazol-1-yl)acetyl)-4-hydroxypyrrolidine-2-carboxamido)-3-(4-(4-methylthiazol-5-yl)phenyl)propanamido)butyl)phenoxy)-5-oxopentan-2-yl)carbamoyl)-6-oxodecahydropyrrolo[1,2-a][1,5]diazocin-5-yl)carbamoyl)-1H-indole-5-carbonyl)phosphonic acid] | > 80 | < 10 | < 10 | < 10
7 | Cc1ncsc1-c1ccc([C@H](C)NC(=O)[C@@H]2C[C@@H](O)CN2C(=O)[C@@H](n2cc(CCCCCCCC(=O)N3CC[C@H]4CC[C@@H](C(=O)N[C@@H](CCC(N)=O)C(=O)NC(c5ccccc5)c5ccccc5)N4C(=O)[C@@H](NC(=O)c4cc5cc(C(=O)P(=O)(O)O)ccc5[nH]4)C3)nn2)C(C)(C)C)cc1 [Compound 60, (2-(((5S,8S,10aR)-8-(((S)-5-amino-1-(benzhydrylamino)-1,5-dioxopentan-2-yl)carbamoyl)-3-(8-(1-((S)-1-((2S,4R)-4-hydroxy-2-(((S)-1-(4-(4-methylthiazol-5-yl)phenyl)ethyl)carbamoyl)pyrrolidin-1-yl)-3,3-dimethyl-1-oxobutan-2-yl)-1H-1,2,3-triazol-4-yl)octanoyl)-6-oxodecahydropyrrolo[1,2-a][1,5]diazocin-5-yl)carbamoyl)-1H-indole-5-carbonyl)phosphonic acid] |  | > 1000 | > 1000 | > 1000
8 | CC(=O)N1CC[C@H]2CC[C@@H](C(=O)N[C@@H](CCC(N)=O)COc3cccc(CCCc4cn([C@H](C(=O)N5C[C@H](O)C[C@H]5C(=O)N[C@@H](CO)c5ccc(-c6scnc6C)cc5)C(C)(C)C)nn4)c3Cl)N2C(=O)[C@@H](NC(=O)c2cc3cc(C(=O)P(=O)(O)O)ccc3[nH]2)C1 [Compound 39, (2-(((5S,8S,10aR)-3-acetyl-8-(((S)-5-amino-1-(2-chloro-3-(3-(1-((S)-1-((2S,4R)-4-hydroxy-2-(((R)-2-hydroxy-1-(4-(4-methylthiazol-5-yl)phenyl)ethyl)carbamoyl)pyrrolidin-1-yl)-3,3-dimethyl-1-oxobutan-2-yl)-1H-1,2,3-triazol-4-yl)propyl)phenoxy)-5-oxopentan-2-yl)carbamoyl)-6-oxodecahydropyrrolo[1,2-a][1,5]diazocin-5-yl)carbamoyl)-1H-indole-5-carbonyl)phosphonic acid] | > 80 | < 10 | < 10 | < 10
9 | CC(=O)N1CC[C@H]2CC[C@@H](C(=O)N[C@@H](CCC(N)=O)COc3cccc(CCCc4cn([C@H](C(=O)N5C[C@H](O)C[C@H]5C(=O)N[C@@H](CCN5CCOCC5)c5ccc(-c6scnc6C)cc5)C(C)(C)C)nn4)c3Cl)N2C(=O)[C@@H](NC(=O)c2cc3cc(C(=O)P(=O)(O)O)ccc3[nH]2)C1 [Compound 4, (2-(((5S,8S,10aR)-3-acetyl-8-(((S)-5-amino-1-(2-chloro-3-(3-(1-((S)-1-((2S,4R)-4-hydroxy-2-(((S)-1-(4-(4-methylthiazol-5-yl)phenyl)-3-morpholinopropyl)carbamoyl)pyrrolidin-1-yl)-3,3-dimethyl-1-oxobutan-2-yl)-1H-1,2,3-triazol-4-yl)propyl)phenoxy)-5-oxopentan-2-yl)carbamoyl)-6-oxodecahydropyrrolo[1,2-a][1,5]diazocin-5-yl)carbamoyl)-1H-indole-5-carbonyl)phosphonic acid] | > 80 | 10 to 100 | 10 to 100 | 10 to 100
